*1 amine or outer side, *2 acyl side, *3 side chain or, on linkers, in order; H or OH if unused. Where a SMILES comes first, the peptide text is derived from it. Bridges are numbered along the chain shown (N, C = ends). [ ]: non-standard residue; d: D form. The star is where a group is joined. ξ: configuration not given here. hTyr(3S-OH,4S-OH,3'-OSO3H) = N[C@H](C(=O)O)[C@H](O)[C@@H](O)c1ccc(O)c(OS(=O)(=O)O)c1; Orn(4R-OH,5R-OH) = O=C([C@H](C[C@@H](O)[C@@H](O)N[*:3])N[*:1])[*:2]; Orn(4R-OH,5S-OH) = O=C([C@H](C[C@@H](O)[C@H](O)N[*:3])N[*:1])[*:2]; X4 = CCCCCCOc1ccc(-c2nnc(-c3ccc(C(=O)*)cc3)s2)cc1; X6 = CCCCCCCOc1ccc(N2CCN(c3ccc(C(=O)*)cn3)CC2)cc1; Pro(3S-OH,4S-Me) = C[C@H]1CN[C@H](C(=O)O)[C@H]1O; X1 = CCCCCCOc1ccc(N2CCN(c3ccc(C(=O)*)cc3)CC2)cc1; X2 = CCCCCOc1ccc(-c2cc(-c3ccc(C(=O)*)cc3)no2)cc1; X3 = CCCCOc1ccc(-c2ccc(-c3ccc(C(=O)*)cc3)cc2)cc1; X5 = CCCCCOc1ccc(-c2cc(-c3ccc(C(=O)*)cc3)on2)cc1; X7 = CCCCCCOc1ccc(C2CCN(c3ccc(C(=O)*)cc3)CC2)cc1; X8 = CCCCCOc1ccc(-c2nc(-c3ccc(C(=O)*)cc3)cs2)cc1; Benzoyl(4-octyloxy) = CCCCCCCCOc1ccc(C(=O)*)cc1; Gln(3R-OH) = NC(=O)C[C@@H](O)[C@H](N)C(=O)O; Hyp = O=C(O)[C@@H]1C[C@@H](O)CN1; ξThr(3R) = C[C@@H](O)C(N)C(=O)O
Experiments:
Candida albicans [1] = test: Antifungal activity against Candida albicans FP633 in RPMI media; format: functional
Candida albicans [2] = test: Antifungal activity against Candida albicans FP633 in mouse serum; format: functional
Aspergillus fumigatus [3] = test: Antifungal activity against Aspergillus fumigatus FP1305 in RPMI media; format: functional
Aspergillus fumigatus [4] = test: Antifungal activity against Aspergillus fumigatus FP1305 in mouse serum; format: functional
[5] = Hemolytic activity in human erythrocytes at 1 mg/ml; format: ADME, cell-based, Erythrocyte; details: read-out: Activity
Candida albicans [6] = test: Antifungal activity against Candida albicans FP633 infected in mouse; format: functional
[7] = Concentration in mouse plasma at 5 mg/kg, iv after 30 mins; format: ADME, organism-based; set-up: dose 5 mg/kg, route intravenous
[8] = Half life in mouse at 5 mg/kg, iv after 30 mins; format: ADME, organism-based; set-up: dose 5 mg/kg, route intravenous; details: in vivo
[9] = AUC (0 to infinity) in mouse at 5 mg/kg, iv after 30 mins; format: ADME, organism-based; set-up: time infinity, dose 5 mg/kg, route intravenous; details: plasma
Aspergillus fumigatus [10] = test: Antifungal activity against Aspergillus fumigatus FP1305 infected in mouse

SMILES	MIC (Candida albicans [1])	MIC (Candida albicans [2])	IC50 (Aspergillus fumigatus [3])	MIC (Aspergillus fumigatus [4])	hemolysis at 1 mg/ml [5]	ED50 (Candida albicans [6])	concentration at 0.5 h [7]	half-life [8]	AUC(0-inf) [9]	ED50 (Aspergillus fumigatus [10])
CCCCCOc1ccc(-c2cc(-c3ccc(C(=O)N[C@H]4C[C@@H](O)[C@@H](O)NC(=O)[C@@H]5[C@@H](O)[C@@H](C)CN5C(=O)[C@H]([C@H](O)CC(N)=O)NC(=O)[C@H]([C@H](O)[C@@H](O)c5ccc(O)c(OS(=O)(=O)[O-])c5)NC(=O)[C@@H]5C[C@@H](O)CN5C(=O)C([C@@H](C)O)NC4=O)cc3)no2)cc1.[Na+] (stereo partly drawn) (X2-[Orn(4R-OH,5R-OH)][ξThr(3R)][Hyp][hTyr(3S-OH,4S-OH,3'-OSO3H)][Gln(3R-OH)][Pro(3S-OH,4S-Me)]; lactam 1-C)	0.05 mg/L	1.56 mg/L	0.002 mg/L	1.56 mg/L	–	0.325 mg/kg	10.1 µg/mL	5.1 h	78 µg·h/mL	0.228 mg/kg
CCCCCCOc1ccc(C2CCN(c3ccc(C(=O)N[C@H]4C[C@@H](O)[C@@H](O)NC(=O)[C@@H]5[C@@H](O)[C@@H](C)CN5C(=O)[C@H]([C@H](O)CC(N)=O)NC(=O)[C@H]([C@H](O)[C@@H](O)c5ccc(O)c(OS(=O)(=O)[O-])c5)NC(=O)[C@@H]5C[C@@H](O)CN5C(=O)C([C@@H](C)O)NC4=O)cc3)CC2)cc1.[Na+] (stereo partly drawn) (X7-[Orn(4R-OH,5R-OH)][ξThr(3R)][Hyp][hTyr(3S-OH,4S-OH,3'-OSO3H)][Gln(3R-OH)][Pro(3S-OH,4S-Me)]; lactam 1-C)	0.05 mg/L	1.56 mg/L	0.003 mg/L	1.56 mg/L	33%	–	–	–	–	–
CCCCCCOc1ccc(N2CCN(c3ccc(C(=O)N[C@H]4C[C@@H](O)[C@@H](O)NC(=O)[C@@H]5[C@@H](O)[C@@H](C)CN5C(=O)[C@H]([C@H](O)CC(N)=O)NC(=O)[C@H]([C@H](O)[C@@H](O)c5ccc(O)c(OS(=O)(=O)[O-])c5)NC(=O)[C@@H]5C[C@@H](O)CN5C(=O)C([C@@H](C)O)NC4=O)cc3)CC2)cc1.[Na+] (stereo partly drawn) (X1-[Orn(4R-OH,5R-OH)][ξThr(3R)][Hyp][hTyr(3S-OH,4S-OH,3'-OSO3H)][Gln(3R-OH)][Pro(3S-OH,4S-Me)]; lactam 1-C)	0.1 mg/L	3.13 mg/L	0.002 mg/L	1.56 mg/L	< 20%	0.395 mg/kg	18.8 µg/mL	3.5 h	105 µg·h/mL	0.531 mg/kg
CCCCCOc1ccc(-c2cc(-c3ccc(C(=O)N[C@H]4C[C@@H](O)[C@@H](O)NC(=O)[C@@H]5[C@@H](O)[C@@H](C)CN5C(=O)[C@H]([C@H](O)CC(N)=O)NC(=O)[C@H]([C@H](O)[C@@H](O)c5ccc(O)c(OS(=O)(=O)O)c5)NC(=O)[C@@H]5C[C@@H](O)CN5C(=O)[C@H]([C@@H](C)O)NC4=O)cc3)no2)cc1 (X2-[Orn(4R-OH,5R-OH)]T[Hyp][hTyr(3S-OH,4S-OH,3'-OSO3H)][Gln(3R-OH)][Pro(3S-OH,4S-Me)]; lactam 1-C)	–	–	–	–	< 20%	–	–	–	–	–
CCCCCCCCOc1ccc(C(=O)N[C@H]2C[C@@H](O)[C@H](O)NC(=O)[C@@H]3[C@@H](O)[C@@H](C)CN3C(=O)[C@H]([C@H](O)CC(N)=O)NC(=O)[C@H]([C@H](O)[C@@H](O)c3ccc(O)c(OS(=O)(=O)[O-])c3)NC(=O)[C@@H]3C[C@@H](O)CN3C(=O)[C@H]([C@@H](C)O)NC2=O)cc1.[Na+] [FR-131535] ({Benzoyl(4-octyloxy)}-[Orn(4R-OH,5S-OH)]T[Hyp][hTyr(3S-OH,4S-OH,3'-OSO3H)][Gln(3R-OH)][Pro(3S-OH,4S-Me)]; lactam 1-C)	–	25 mg/L	–	12.5 mg/L	–	–	30.3 µg/mL	2 h	109 µg·h/mL	–

The next lines start with results.

MIC (Candida albicans [1])	MIC (Candida albicans [2])	IC50 (Aspergillus fumigatus [3])	MIC (Aspergillus fumigatus [4])	SMILES	hemolysis at 1 mg/ml [5]	ED50 (Candida albicans [6])	concentration at 0.5 h [7]	half-life [8]	AUC(0-inf) [9]	ED50 (Aspergillus fumigatus [10])
0.2 mg/L	3.13 mg/L	0.005 mg/L	6.25 mg/L	CCCCCCCOc1ccc(N2CCN(c3ccc(C(=O)N[C@H]4C[C@@H](O)[C@@H](O)NC(=O)[C@@H]5[C@@H](O)[C@@H](C)CN5C(=O)[C@H]([C@H](O)CC(N)=O)NC(=O)[C@H]([C@H](O)[C@@H](O)c5ccc(O)c(OS(=O)(=O)[O-])c5)NC(=O)[C@@H]5C[C@@H](O)CN5C(=O)C([C@@H](C)O)NC4=O)cn3)CC2)cc1.[Na+] (stereo partly drawn) (X6-[Orn(4R-OH,5R-OH)][ξThr(3R)][Hyp][hTyr(3S-OH,4S-OH,3'-OSO3H)][Gln(3R-OH)][Pro(3S-OH,4S-Me)]; lactam 1-C)	< 20%	–	–	–	–	–
0.1 mg/L	6.25 mg/L	–	3.13 mg/L	CCCCCOc1ccc(-c2nc(-c3ccc(C(=O)N[C@H]4C[C@@H](O)[C@@H](O)NC(=O)[C@@H]5[C@@H](O)[C@@H](C)CN5C(=O)[C@H]([C@H](O)CC(N)=O)NC(=O)[C@H]([C@H](O)[C@@H](O)c5ccc(O)c(OS(=O)(=O)[O-])c5)NC(=O)[C@@H]5C[C@@H](O)CN5C(=O)C([C@@H](C)O)NC4=O)cc3)cs2)cc1.[Na+] (stereo partly drawn) (X8-[Orn(4R-OH,5R-OH)][ξThr(3R)][Hyp][hTyr(3S-OH,4S-OH,3'-OSO3H)][Gln(3R-OH)][Pro(3S-OH,4S-Me)]; lactam 1-C)	< 20%	–	–	–	–	–
0.05 mg/L	0.78 mg/L	0.002 mg/L	0.78 mg/L	CCCCCCOc1ccc(-c2nnc(-c3ccc(C(=O)N[C@H]4C[C@@H](O)[C@@H](O)NC(=O)[C@@H]5[C@@H](O)[C@@H](C)CN5C(=O)[C@H]([C@H](O)CC(N)=O)NC(=O)[C@H]([C@H](O)[C@@H](O)c5ccc(O)c(OS(=O)(=O)[O-])c5)NC(=O)[C@@H]5C[C@@H](O)CN5C(=O)C([C@@H](C)O)NC4=O)cc3)s2)cc1.[Na+] (stereo partly drawn) (X4-[Orn(4R-OH,5R-OH)][ξThr(3R)][Hyp][hTyr(3S-OH,4S-OH,3'-OSO3H)][Gln(3R-OH)][Pro(3S-OH,4S-Me)]; lactam 1-C)	42%	–	–	–	–	–
0.025 mg/L	1.56 mg/L	0.002 mg/L	1.56 mg/L	CCCCOc1ccc(-c2ccc(-c3ccc(C(=O)N[C@H]4C[C@@H](O)[C@@H](O)NC(=O)[C@@H]5[C@@H](O)[C@@H](C)CN5C(=O)[C@H]([C@H](O)CC(N)=O)NC(=O)[C@H]([C@H](O)[C@@H](O)c5ccc(O)c(OS(=O)(=O)[O-])c5)NC(=O)[C@@H]5C[C@@H](O)CN5C(=O)[C@H]([C@@H](C)O)NC4=O)cc3)cc2)cc1.[Na+] (X3-[Orn(4R-OH,5R-OH)]T[Hyp][hTyr(3S-OH,4S-OH,3'-OSO3H)][Gln(3R-OH)][Pro(3S-OH,4S-Me)]; lactam 1-C)	79%	0.447 mg/kg	–	–	–	–
0.05 mg/L	1.56 mg/L	0.001 mg/L	0.78 mg/L	CCCCCOc1ccc(-c2cc(-c3ccc(C(=O)N[C@H]4C[C@@H](O)[C@@H](O)NC(=O)[C@@H]5[C@@H](O)[C@@H](C)CN5C(=O)[C@H]([C@H](O)CC(N)=O)NC(=O)[C@H]([C@H](O)[C@@H](O)c5ccc(O)c(OS(=O)(=O)[O-])c5)NC(=O)[C@@H]5C[C@@H](O)CN5C(=O)C([C@@H](C)O)NC4=O)cc3)on2)cc1.[Na+] (stereo partly drawn) (X5-[Orn(4R-OH,5R-OH)][ξThr(3R)][Hyp][hTyr(3S-OH,4S-OH,3'-OSO3H)][Gln(3R-OH)][Pro(3S-OH,4S-Me)]; lactam 1-C)	38%	–	–	–	–	–

From ChEMBL document CHEMBL1145626, “Novel echinocandin antifungals. Part 2: Optimization of the side chain of the natural product FR901379. Discovery of micafungin” (Bioorg Med Chem Lett, 2008)
